The values below come from US7442784B2, “Ligand activated transcriptional regulator proteins” (The Scripps Research Institute, priority 1999, dated 2008).

What all share (experiment): Finger 2 variant affinity (Table 5)
Type in all cases: binding

One test has as its target Finger-2 Subsite GTG. An excerpt:
(§1) Finger 2 variants recognizing each of the 16 triplets of the GXX set (Segal et al. (1999) Proc. Natl. Acad. Sci. U.S.A. 96:2758-2763; and Table 1), as well as one variant recognizing TGA, have been successfully selected. […] Thus, a 5′- and 3′-G selected an arginine at helix positions 6 and −1, respectively, while a central G selected an a histidine or lysine at position 3 of the recognition helix. In contrast, a central A selected an asparagine, a 3′-A a glutamine, a central T a serine or alanine, a 3′-T a threonine or serine, a central C an aspartate or threonine, and a 3′-C an aspartate or glutamate at the corresponding helix positions.
(§2) In Table 5, below, the finger 2 variants generated by phage display selection and refined by site-directed mutagenesis are summarized. Protein designations are in the form pXXX, for clones derived from panning; pmXXX refers to clones refined by mutagenesis. Helix positions −1, 3, and 6 are shown in bold, altered nucleotides are underlined. The values represent the results of at least two independent experiments. The standard error was ±50% or less.

The next test has as its target Finger-2 Subsite GAG.
Excerpt: as §1, §2

The target of a further test is Finger-2 Subsite GTT.
Excerpt: as §1, §2

Consider “pmGTG: finger 2 variant refined by mutagenesis, helix SRSDELVR”, for which, on Finger-2 Subsite GTG, the “KD,Prot/KD,Zif268” value was 1.5 and the Kd – broadly, the free concentration of one partner at which half of the binding sites on the other are occupied at equilibrium, for simple one-to-one binding – was determined as 15 nM. For the same substance, on Finger-2 Subsite GAG, the “KD,Prot/KD,Zif268” value turned out to be 3.0 and the affinity, expressed as Kd, was 30 nM.

As to “pmGTT: finger 2 variant refined by mutagenesis, helix STSGSLVR”, at Finger-2 Subsite GTT, the “KD,Prot/KD,Zif268” value amounted to 0.5 and the affinity, expressed as Kd, was 5 nM.
